Assay results reported in US9073820B2, “Pharmaceutical compositions comprising napthamides” (OREGON HEALTH & SCIENCE UNIVERSITY, priority 2011, dated 2015).
Like-named read-outs stand apart in the source and are kept apart here.

Tests used:
[1] = tested on: MDA-MB-231 (human breast cancer cells); experiment: MTT cell growth inhibition, 72 h, MDA-MB-231; format: cell-based; settings: MDA-MB-231, 72 h, read-out: MDA-MB-231 (GI50)
Description: (§1) A549 (human lung cancer cells), MCF-7 (human breast cancer cells), MDA-MB-231 (human breast cancer cells) and MDA-MB-468 cells (human breast cancer cells) were maintained in Dulbecco's modified Eagle medium (DMEM, Invitrogen, Carlsbad, Calif.) supplemented with 10% (v/v) fetal calf serum (Sigma, St. Louis, Mo.), 10 μg/mL penicillin and 10 μg/mL streptomycin (Invitrogen, Carlsbad, Calif.) at 37° C. under 5% CO2. On the day of experiment, different concentrations of the drugs (final concentration 10^−8-10^−4 M) in duplicates were added to the cells and the cells were further incubated for 72 h. Then, the number of live cells was quantified by 3-(4,5-dimethyl-2-thiazolyl)-2,5-diphenyl-2H-tetrazolium bromide (MTT reagent, Sigma, St. Louis, Mo.).
(§2) The amount of reduced MTT formazan generated by live cells was determined by its absorbance at 570 nm after subtracting the background absorbance at 690 nm. The percent of cell growth was expressed as (A570(treated)−A570(initial))/(A570(vehicle treated)−A570(initial))*100, where A570(initial) represents initial cell population when drugs are added. The GI50 were derived from non-linear regression analysis of the dose-response curve using Prism 4.0 (GraphPad). […] Data were presented as mean±SD of at least two measurements in duplicates unless noted.

[2] = tested on: MDA-MB-468 cells (human breast cancer cells); experiment: MTT cell growth inhibition, 72 h, MDA-MB-468; format: cell-based; settings: MDA-MB-468, 72 h, read-out: MDA-MB-468 (GI50)
Description: as §1, §2

[3] = tested on: CREB-mediated gene transcription; experiment: CREB reporter (pCRE-RLuc) assay in HEK 293T cells, forskolin-stimulated; format: cell-based; settings: Homo sapiens, 5 h, read-out: CREB reporter inhibition (IC50)
Description: HEK293T cells in a 10-cm plate were transfected with pCRE-RLuc (6.0 μg) using Lipofectamine™ 2000 (Invitrogen, Carlsbad, Calif.) according to manufacturer's protocol. After 3 h, the transfected cells were collected and replated into 96-well plates (1-2×10^4 cells/well). The cells were allowed to attach to the bottom of the wells for overnight, when compounds of different concentrations were added to the cells. Forskolin (final concentration of 10 μM, LC Laboratories, Woburn, Mass.) was added 30 min after the addition of the compounds. The cells were then incubated at 37° C. for 5 h. The media in the wells were removed and the cells were then lysed in 30 μL of 1×Renilla luciferase lysis buffer (Promega, Madison, Wis.). To measure Renilla luciferase activity, five μL of the lysate was combined with 30 μL of benzyl-coelenterazine (Nanolight, Pinetop, Ariz.) solution in PBS (pH 7.4, 10 μg/mL). The sample protein concentration was determined by Dye Reagent Concentrate (Bio-Rad, Hercules, Calif.). The Renilla luciferase activity was normalized to protein content in each well and expressed as relative luciferase unit/μg protein (RLU/μg protein). The IC50 was derived from non-linear regression analysis of the RLU/μg protein-concentration curve in Prism 5.0 (La Jolla, Calif.).

KIX-KID = target: T1, KIX-KID (Homo sapiens, UniProt Q92793); experiment: KIX-KID inhibition, split Renilla luciferase complementation (RLucC-KIX and KID-RLucN); format: binding; settings: 4° C., 24 h
T1 construct: made in house
Description: RLucC-KIX (15 ng) and KID-RLucN-containing cell lysates (0.5 mg) were mixed together in Renilla luciferase lysis buffer (Promega, Madison, Wis.) in the presence of different concentrations of compounds. The final volume of the incubation mixture is 30 μL. The mixture was incubated at 4° C. for 24 h. Then Renilla luciferase activity was measured by combining 5 μL of incubation mixture with 30 μL of coelenterazine solution in PBS (pH 7.4, 10 μg/mL).

[4] = tested on: A549 (human lung cancer cells); experiment: MTT cell growth inhibition, 72 h, A549; format: cell-based; settings: A549, 72 h, read-out: A549 (GI50)
Description: as §1, §2

[5] = tested on: MCF-7 (human breast cancer cells); experiment: MTT cell growth inhibition, 72 h, MCF-7; format: cell-based; settings: MCF7, 72 h, read-out: MCF-7 (GI50)
Description: as §1, §2

T1 sequence (Q92793 587-666 limits assumed): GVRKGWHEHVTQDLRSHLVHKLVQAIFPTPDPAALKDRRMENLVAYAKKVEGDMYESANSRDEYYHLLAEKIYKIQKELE

IC50 ([3]; HEK 293T, forskolin 10 μM) [nM] | IC50 (KIX-KID) [nM] | SMILES | GI50 [1] [nM] | GI50 [2] [nM] | IC50 ([3]; HEK-293T) [nM] | also measured
2290 ± 310 | 2900 ± 810 | O=C(Nc1ccc(Cl)cc1)c1cc2ccccc2cc1O [Compound 1, reference compound] |  |  |  | GI50 ([1]; MTT, mean±SD): 2350 ± 600 nM; GI50 ([2]; MTT, mean±SD): 1460 ± 300 nM
1950 ± 1140 | 170 ± 120 | COc1cc2ccccc2cc1C(=O)Nc1ccccc1OC(=O)c1cc2ccccc2cc1OC [Compound 2, reference compound] |  |  |  | GI50 ([4]; MTT, mean±SD): 8780 ± 2550 nM; GI50 ([5]; MTT, mean±SD): 3380 ± 490 nM; GI50 ([1]; MTT, mean±SD): 23500 ± 2270 nM; GI50 ([2]; MTT, mean±SD): 8130 ± 5470 nM
2270 ± 280 | 8020 ± 360 | NCCCOc1cc2ccccc2cc1C(=O)Nc1ccc(Cl)cc1OC(=O)c1cc2ccccc2cc1OCCCN [Compound 3, reference compound] |  |  |  | 
 |  | NCCCOc1cc2ccccc2cc1C(=O)NCCOc1nc2ccccc2cc1C(=O)Nc1ccc(Cl)cc1O [Compound 6] | 190 ± 120 | 13 ± 2 | 72 ± 9 | 
 |  | NCCCOc1nc2ccccc2cc1C(=O)NCCOc1cc2ccccc2cc1C(=O)Nc1ccc(Cl)cc1O [Compound 7] | 840 ± 180 | 140 ± 24 | 170 ± 66 | GI50 [4]: 640 nM; GI50 [5]: 190 nM
 |  | NCCCOc1nc2ccccc2cc1C(=O)NCCOc1nc2ccccc2cc1C(=O)Nc1ccc(Cl)cc1O [Compound 8] | 540 ± 130 | 290 ± 55 | 4030 ± 200 | 
 |  | NCCCOc1nc2ccccc2cc1C(=O)NCCOc1nc2ccccc2cc1C(=O)Nc1ccc(Cl)cc1F [Compound 9] | 370 ± 250 |  | 440 ± 340 | 
